Measured values as given in BigSolDB 2.1.

c1ccc(-c2cc3ccccc3[nH]2)cc1
Details | solubility (mole fraction)
in 1,2-dichloroethane, 296.95 K | 0.0186
in 1,2-dichloroethane, 302.45 K | 0.0236
in 1,2-dichloroethane, 308.55 K | 0.0285
in 1,2-dichloroethane, 313.15 K | 0.0325
in 1,2-dichloroethane, 318.25 K | 0.0373
in 1,2-dichloroethane, 323.25 K | 0.0422
in 1,2-dichloroethane, 329.05 K | 0.0498
in 1,2-dichloroethane, 334.05 K | 0.0575
in 1,2-dichloroethane, 338.55 K | 0.0666
in 1,4-dioxane, 289.05 K | 0.0403
in 1,4-dioxane, 293.15 K | 0.0507
in 1,4-dioxane, 299.15 K | 0.0625
in 1,4-dioxane, 303.95 K | 0.0735
in 1,4-dioxane, 308.95 K | 0.0903
in 1,4-dioxane, 313.65 K | 0.114
in 1,4-dioxane, 318.65 K | 0.145
in 1,4-dioxane, 324.05 K | 0.172
in 1,4-dioxane, 329.35 K | 0.201
in 1,4-dioxane, 334.15 K | 0.239
in MTBE, 289.05 K | 0.0337
in MTBE, 293.15 K | 0.0351
in MTBE, 299.15 K | 0.0383
in MTBE, 303.95 K | 0.0406
in MTBE, 308.95 K | 0.0428
in MTBE, 313.65 K | 0.0452
in MTBE, 318.65 K | 0.049
in MTBE, 324.05 K | 0.0522
in MTBE, 329.35 K | 0.0558
in MTBE, 334.15 K | 0.0596
in THF, 289.05 K | 0.187
in THF, 293.15 K | 0.194
in THF, 299.15 K | 0.203
in THF, 303.95 K | 0.211
in THF, 308.95 K | 0.218
in THF, 313.65 K | 0.225
in THF, 318.65 K | 0.232
in THF, 324.05 K | 0.24
in THF, 329.35 K | 0.248
in THF, 334.15 K | 0.256
in acetone, 289.05 K | 0.0951
in acetone, 293.15 K | 0.106
in acetone, 299.15 K | 0.111
in acetone, 303.95 K | 0.122
in acetone, 308.95 K | 0.132
in acetone, 313.65 K | 0.142
in acetone, 318.65 K | 0.15
in acetone, 324.05 K | 0.16
in acetone, 329.35 K | 0.172
in acetonitrile, 289.05 K | 0.0144
in acetonitrile, 293.15 K | 0.0164
in acetonitrile, 299.15 K | 0.02
in acetonitrile, 303.95 K | 0.0237
in acetonitrile, 308.95 K | 0.0283
in acetonitrile, 313.65 K | 0.0328
in acetonitrile, 318.65 K | 0.038
in acetonitrile, 324.05 K | 0.0446
in acetonitrile, 329.35 K | 0.0533
in acetonitrile, 334.15 K | 0.0604
in ethanol, 296.95 K | 0.0109
in ethanol, 302.45 K | 0.012
in ethanol, 308.55 K | 0.014
in ethanol, 313.15 K | 0.0154
in ethanol, 318.25 K | 0.0173
in ethanol, 323.25 K | 0.0187
in ethanol, 329.05 K | 0.0217
in ethanol, 334.05 K | 0.0249
in ethanol, 338.55 K | 0.0274
in ethyl acetate, 289.05 K | 0.0634
in ethyl acetate, 293.15 K | 0.0694
in ethyl acetate, 299.15 K | 0.0761
in ethyl acetate, 303.95 K | 0.0814
in ethyl acetate, 308.95 K | 0.0879
in ethyl acetate, 313.65 K | 0.0951
in ethyl acetate, 318.65 K | 0.101
in ethyl acetate, 324.05 K | 0.11
in ethyl acetate, 329.35 K | 0.119
in ethyl acetate, 334.15 K | 0.128
in isopropanol, 296.95 K | 0.00786
in isopropanol, 302.45 K | 0.00963
in isopropanol, 308.55 K | 0.0115
in isopropanol, 313.15 K | 0.0125
in isopropanol, 318.25 K | 0.0148
in isopropanol, 323.25 K | 0.0168
in isopropanol, 329.05 K | 0.0185
in isopropanol, 334.05 K | 0.0218
in isopropanol, 338.55 K | 0.0233
in methanol, 296.95 K | 0.00571
in methanol, 302.45 K | 0.00709
in methanol, 308.55 K | 0.00835
in methanol, 313.15 K | 0.00941
in methanol, 318.25 K | 0.0107
in methanol, 323.25 K | 0.0119
in methanol, 329.05 K | 0.0136
in methanol, 334.05 K | 0.016
in methanol, 338.55 K | 0.017
in n-butanol, 296.95 K | 0.0123
in n-butanol, 302.45 K | 0.0141
in n-butanol, 308.55 K | 0.0163
in n-butanol, 313.15 K | 0.0181
in n-butanol, 318.25 K | 0.0212
in n-butanol, 323.25 K | 0.0241
in n-butanol, 329.05 K | 0.0276
in n-butanol, 334.05 K | 0.0311
in n-butanol, 338.55 K | 0.0357
in n-propanol, 296.95 K | 0.0104
in n-propanol, 302.45 K | 0.012
in n-propanol, 308.55 K | 0.0134
in n-propanol, 313.15 K | 0.0156
in n-propanol, 318.25 K | 0.0177
in n-propanol, 323.25 K | 0.0206
in n-propanol, 329.05 K | 0.0233
in n-propanol, 334.05 K | 0.0269
in n-propanol, 338.55 K | 0.03
in sec-butanol, 296.95 K | 0.00879
in sec-butanol, 302.45 K | 0.0111
in sec-butanol, 308.55 K | 0.014
in sec-butanol, 313.15 K | 0.0157
in sec-butanol, 318.25 K | 0.0182
in sec-butanol, 323.25 K | 0.022
in sec-butanol, 329.05 K | 0.0271
in sec-butanol, 334.05 K | 0.0307
in sec-butanol, 338.55 K | 0.0353
in toluene, 289.05 K | 0.00911
in toluene, 293.15 K | 0.0101
in toluene, 299.15 K | 0.0122
in toluene, 303.95 K | 0.0141
in toluene, 308.95 K | 0.0167
in toluene, 313.65 K | 0.0191
in toluene, 318.65 K | 0.0222
in toluene, 324.05 K | 0.0255
in toluene, 329.35 K | 0.0298
in toluene, 334.15 K | 0.0342
